Data published in patent US20230118688A1, “1H-PYRAZOLO[4,3-d]PYRIMIDINE COMPOUNDS AS TOLL-LIKE RECEPTOR 7 (TLR7) AGONISTS” (BRISTOL-MYERS SQUIBB COMPANY, priority 2020, published 2023).
Like-named read-outs stand apart in the source and are kept apart here.

Experiments:
human TLR7 = target: T1, human TLR7 (Homo sapiens, UniProt Q9NYK1); assay: Human TLR7 agonist activity reporter assay (HEK-Blue TLR7 cells, SEAP reporter); assay type: cell-based; details: 18 h treatment
T1 construct: host or cells: HEK-Blue TLR7 cells (engineered human embryonic kidney cells)
T1 sequence (Q9NYK1 27-1049): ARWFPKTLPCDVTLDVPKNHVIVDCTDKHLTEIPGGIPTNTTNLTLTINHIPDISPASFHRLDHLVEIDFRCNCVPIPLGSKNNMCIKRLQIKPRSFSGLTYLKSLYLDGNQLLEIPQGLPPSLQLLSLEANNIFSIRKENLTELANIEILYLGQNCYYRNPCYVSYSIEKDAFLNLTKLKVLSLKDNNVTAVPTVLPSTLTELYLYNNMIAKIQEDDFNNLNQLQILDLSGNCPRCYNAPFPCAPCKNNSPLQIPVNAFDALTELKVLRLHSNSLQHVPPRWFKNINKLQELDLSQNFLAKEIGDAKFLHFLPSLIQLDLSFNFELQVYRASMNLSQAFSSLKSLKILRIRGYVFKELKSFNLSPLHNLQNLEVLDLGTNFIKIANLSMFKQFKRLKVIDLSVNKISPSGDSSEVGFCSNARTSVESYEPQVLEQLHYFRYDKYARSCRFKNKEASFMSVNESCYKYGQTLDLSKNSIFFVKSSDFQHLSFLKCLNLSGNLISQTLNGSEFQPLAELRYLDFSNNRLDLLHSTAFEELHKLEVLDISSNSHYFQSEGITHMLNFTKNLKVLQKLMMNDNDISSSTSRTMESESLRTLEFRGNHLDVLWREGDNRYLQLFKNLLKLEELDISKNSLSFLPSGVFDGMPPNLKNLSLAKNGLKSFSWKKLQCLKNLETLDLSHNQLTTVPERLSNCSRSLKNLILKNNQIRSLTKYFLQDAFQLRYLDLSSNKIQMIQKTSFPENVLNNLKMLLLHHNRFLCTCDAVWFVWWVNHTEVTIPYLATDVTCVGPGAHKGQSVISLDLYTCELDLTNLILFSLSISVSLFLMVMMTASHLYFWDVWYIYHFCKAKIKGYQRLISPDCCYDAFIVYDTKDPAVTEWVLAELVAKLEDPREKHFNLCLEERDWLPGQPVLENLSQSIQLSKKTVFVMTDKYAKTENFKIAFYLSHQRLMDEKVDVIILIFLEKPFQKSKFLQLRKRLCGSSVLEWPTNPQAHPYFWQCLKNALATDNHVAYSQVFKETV
Method: This procedure describes a method for assaying human TLR7 (hTLR7) agonist activity of the compounds disclosed in this specification.
HEK-Blue™ TLR7 cells were added to each well of a 384-well tissue-culture plate (15,000 cells per well) and incubated 16-18 h at 37° C., 5% CO2. Compounds (100 nl) were dispensed into wells containing the HEK-Blue™ TLR cells and the treated cells were incubated at 37° C., 5% CO2. After 18 h treatment ten microliters of freshly-prepared Quanti-Blue™ reagent (Invivogen) was added to each well, incubated for 30 min (37° C., 5% CO2) and SEAP levels measured using an Envision plate reader (OD=620 nm). The half maximal effective concentration values (EC50; compound concentration which induced a response halfway between the assay baseline and maximum) were calculated.

CD69 = assay: Induction of CD69 in human whole blood; assay type: cell-based; details: 17 h, CD69 surface staining, 100% set to 1 uM resiquimod
Method: The induction of Type I interferon (IFN) MX-1 genes and the B-cell activation marker CD69 are downstream events that occur upon activation of the TLR7 pathway. The following is a human whole blood assay that measures their induction in response to a TLR7 agonist.
Heparinized human whole blood was harvested from human subjects and treated with test TLR7 agonist compounds at 1 mM. The blood was diluted with RPMI 1640 media and Echo was used to predot 10 nL per well giving a final concentration of 1 uM (10 nL in 10 uL of blood). After mixing on a shaker for 30 sec, the plates were covered and placed in a 37° C. chamber for o/n=17 hrs. Fixing/lysis buffer was prepared (5×->1× in H2O, warm at 37° C.; Cat #BD 558049) and kept the perm buffer (on ice) for later use.
For surface markers staining (CD69): prepared surface Abs: 0.045 ul hCD14-FITC (ThermoFisher Cat #MHCD1401)+0.6 ul hCD19-ef450 (ThermoFisher Cat #48-0198-42)+1.5 ul hCD69-PE (cat #BD555531)+0.855 ul FACS buffer. Added 3 ul/well, spin1000 rpm for 1 min and mixed on shaker for 30 sec, put on ice for 30 mins. Stop stimulation after 30 minutes with 70 uL of prewarmed 1× fix/lysis buffer and use Feliex mate to resuspend (15 times, change tips for each plate) and incubate at 37C for 10 minutes.
Centrifuge at 2000 rpm for 5 minutes aspirate with HCS plate washer, mix on shaker for 30 sec and then wash with 70 uL in dPBS and pelleted 2×s (2000 rpm for 5 min) and 50 ul wash in FACS buffer pelleted 1×s(2000 rpm for 5 min). Mix on shaker for 30 sec. For Intracellular markers staining (MX-1): Add 50 ul of BD Perm buffer III and mix on shaker for 30 sec. Incubate on ice for 30 minutes (in the dark). Wash with 50 uL of FACS buffer 2× (spin @2300 rpm×5 min after perm) followed by mixing on shaker for 30 sec. Resuspended in 20 ul of FACS buffer containing MX1 antibody ( ) (4812)-Alexa 647: Novus Biologicals #NBP2-43704AF647) 20 ul FACS bf+0.8 ul hlgG+0.04 ul MX-1. Spin 1000 rpm for 1 min, mix on shaker for 30se and the samples were incubated at RT in the dark for 45 minutes followed by washing 2×FACS buffer (spin @2300 rpm×5 min after perm). Resuspend 20 ul (35 uL total per well) of FACS buffer and cover with foil and place in 4° C. to read the following day. Plates were read on iQuePlus. The results were loaded into toolset and IC50 curves are generated in curve master. The y-axis 100% is set to 1 uM of resiquimod.

[1] = average where assay repeated, Table A1, read-out: hTLR7 Agonism EC50
[2] = average where assay repeated, Table A1, read-out: hWB CD69 EC50
[3] = Table A2, read-out: hTLR7 Agonism EC50
[4] = Table A2, read-out: hWB CD69 EC50

Structure (SMILES) | EC50 (human TLR7; [1]) [nM] | EC50 (CD69; [2]) [nM] | EC50 (human TLR7; [3]) [nM] | EC50 (CD69; [4]) [nM]
CCC[C@@H](CCO)Nc1nc(N)nc2cnn(Cc3cc(CN4CCN(C)CC4)ccc3OC)c12 [Compound 157, (S)-3-((5-amino-1-(2-methoxy-5-((4-methylpiperazin-1-yl)methyl)benzyl)-1H-pyrazolo[4,3-d]pyrimidin-7-yl)amino)hexan-1-ol] | 22.5 | 13.2 |  | 
CCCCNc1nc(N)nc2cnn(Cc3cc(CN4CCNCC4)ccc3OC)c12 [Compound 134, N7-butyl-1-({2-methoxy-5-[(piperazin-1-yl)methyl]-phenyl}methyl)-1H-pyrazolo[4,3-d]pyrimidine-5,7-diamine] | 201 | 62.5 |  | 
CCCCNc1nc(N)nc2cnn(Cc3cc(CN(C)CCN(C)C)ccc3OC)c12 [Compound 133, N7-butyl-1-{[5-({[2-(dimethylamino)ethyl](methyl)-amino}methyl)-2-methoxy-phenyl]methyl}-1H-pyrazolo [4,3-d]pyrimidine-5,7-diamine] | 176 | 17 |  | 
CCC[C@@H](CCO)Nc1nc(N)nc2c(C)nn(Cc3cc(CN4CCNCC4)ccc3OC)c12 [Compound 161, (3S)-3-{[5-amino-1-({2-methoxy-5-[(piperazin-1-yl)methyl]phenyl}methyl)-3-methyl-1H-pyrazolo[4,3-d]pyrimidin-7-yl]amino}hexan-1-ol] | 340 | 132 |  | 
CCC[C@@H](CCO)Nc1nc(N)nc2cnn(Cc3cc(CN4CCN(CCO)CC4)ccc3OC)c12 [Compound 156, (3S)-3-({5-amino-1-[(5-{[4-(2-hydroxyethyl)piperazin-1-yl]methyl}-2-methoxy-phenyl)methyl]-1H-pyrazolo[4,3-d]pyrimidin-7-yl}amino)hexan-1-ol] | 56.9 | 73.6 |  | 
CCC[C@@H](CCO)Nc1nc(N)nc2cnn(Cc3cc(CNC4CCOCC4)c(F)cc3OC)c12 [Compound 165, (3S)-3-({5-amino-1-[(4-fluoro-2-methoxy-5-{[(oxan-4-yl)amino]-methyl}phenyl)methyl]-1H-pyrazolo[4,3-d]pyrimidin-7-yl}amino)hexan-1-ol] |  |  | 89.9 | 27.3
CCC[C@@H](CCO)Nc1nc(N)nc2cnn(Cc3cc(CN4CC5(CN(C)C5)C4)ccc3OC)c12 [Compound 158, (3S)-3-[(5-amino-1-{[2-methoxy-5-({6-methyl-2,6-diazaspiro[3.3]heptan-2-yl}methyl)phenyl]methyl}-1H-pyrazolo[4,3-d]pyrimidin-7-yl)amino]-hexan-1-ol] | 604 | 199 |  | 
CCC[C@@H](CCO)Nc1nc(N)nc2cnn(Cc3cc(CN4CCN(C)CC4)ncc3OC)c12 [Compound 177, (3S)-3-{[5-amino-1-({5-methoxy-2-[(4-methylpiperazin-1-yl)methyl]-pyridin-4-yl}methyl)-1H-pyrazolo[4,3-d]pyrimidin-7-yl]amino}hexan-1-ol] |  |  | 750 | 34.5
CCC[C@@H](CCO)Nc1nc(N)nc2cnn(Cc3cc(CN4C[C@H]5C[C@@H]4CN5CCO)c(F)cc3OC)c12 [Compound 175, (3S)-3-({5-amino-1-[(4-fluoro-5-{[(1R,4R)-5-(2-hydroxyethyl)-2,5-diazabicyclo[2.2.1]heptan-2-yl]methyl}-2-methoxyphenyl)-methyl]-1H-pyrazolo[4,3-d]pyrimidin-7-yl}amino)hexan-1-ol] |  |  | 204 | 77
CCCCNc1nc(N)nc2cnn(Cc3cc(CN4CC5CC4CN5)ccc3OC)c12 (centres unmarked) [Compound 118, N7-butyl-1-{[5-({2,5-diaza-bicyclo[2.2.1]heptan-2-yl}methyl)-2-methoxy-phenyl]methyl}-1H-pyrazolo[4,3-d]pyrimidine-5,7-diamine] | 423 | 335 |  | 
CCCCNc1nc(N)nc2cnn(Cc3cc(CNC4CC45CC5)ccc3OC)c12 (centres unmarked) [Compound 117, N7-butyl-1-({2-methoxy-5-[({spiro[2.2]pentan-1-yl}amino)methyl]phenyl}methyl)-1H-pyrazolo[4,3-d]pyrimidine-5,7-diamine] | 562 | 156 |  | 
CCCCNc1nc(N)nc2cnn(Cc3cc(C#N)ccc3OC)c12 [Compound 145, 3-{[5-amino-7-(butyl-amino)-1H-pyrazolo[4,3-d]pyrimidin-1-yl]methyl}-4-methoxybenzonitrile] | 402 | 942 |  | 
CCCCNc1nc(N)nc2cnn(Cc3cc(CNCC4(N)CCC4)ccc3OC)c12 [Compound 129, 1-{[5-({[(1-aminocyclo-butyl)methyl]amino}methyl)-2-methoxyphenyl]methyl}-N7-butyl-1H-pyrazolo[4,3-d]pyrimidine-5,7-diamine] | 587 | 60.9 |  | 
CCC[C@@H](CCO)Nc1nc(N)nc2c(C)nn(Cc3cc(CN4CCN(CCO)CC4)ccc3OC)c12 [Compound 159, (3S)-3-({5-amino-1-[(5-{[4-(2-hydroxyethyl)piperazin-1-yl]methyl}-2-methoxyphenyl)methyl]-3-methyl-1H-pyrazolo[4,3-d]pyrimidin-7-yl}amino)hexan-1-ol] | 98.6 | 37.1 |  | 
CCC[C@@H](CCO)Nc1nc(N)nc2cnn(Cc3cc(CNC)c(F)cc3OC)c12 [Compound 169, (3S)-3-{[5-amino-1-({4-fluoro-2-methoxy-5-[(methylamino)-methyl]phenyl}methyl)-1H-pyrazolo[4,3-d]pyrimidin-7-yl]amino}hexan-1-ol] |  |  | 43.5 | 6.2
CCC[C@@H](CCO)Nc1nc(N)nc2cnn(Cc3cc(CN4C[C@H]5C[C@@H]4CN5C)c(F)cc3OC)c12 [Compound 171, (3S)-3-({5-amino-1-[(4-fluoro-2-methoxy-5-{[(1R,4R)-5-methyl-2,5-diazabicyclo[2.2.1]heptan-2-yl]methyl}phenyl)methyl]-1H-pyrazolo[4,3-d]pyrimidin-7-yl}amino)hexan-1-ol] |  |  | 437 | 140
